Laboratory results published in patent publication US7534891B2, “Quinoline derivatives as H3R inverse agonists” (Hoffman-La Roche Inc., priority 2004, dated 2009).

Molecular target: T1, histamine 3 receptor (H3R), human HR3-CHO membranes (Homo sapiens, UniProt Q9Y5N1)
T1 construct: expressed in transfected cells; host or cells: CHO cells (HR3-CHO cell line), membrane preparation
Assay: Competition binding assay with 3H-(R)α-methylhistamine on membranes of the human HR3-CHO cell line
Settings: displacement of 3H-(R)α-methylhistamine (1 nM), membrane of human HR3-CHO cell line; Ki calculated from IC50 by Cheng-Prusoff
Method: Binding Assay with ^3H-(R)α-methylhistamine
Saturation binding experiments were performed using HR3-CHO membranes prepared as described in Takahashi, K, Tokita, S., Kotani, H. (2003) J. Pharmacol. Exp. Therapeutics 307, 213-218.
An appropriate amount of membrane (60 to 80 μg protein/well) was incubated with increasing concentrations of ^3H(R)α-Methylhistamine di-hydrochloride (0.10 to 10 nM). Non specific binding was determined using a 200 fold excess of cold (R)(X-Methylhistamine dihydrobromide (500 nM final concentration). The incubation was carried out at room temperature (in deep-well plates shaking for three hours). The final volume in each well was 250 pt. The incubation was followed by rapid filtration on GF/B filters (pre-soaked with 100 W of 0.5% PEI in Tris 50 mM shaking at 200 rpm for two hours). The filtration was made using a cell-harvester and the filter plates were then washed five times with ice cold washing buffer containing 0.5 M NaCl. After harvesting, the plates were dried at 55° C. for 60 min, then we added scintillation fluid (Microscint 40, 40 microl in each well) and the amount of radioactivity on the filter was determined in Packard top-counter after shaking the plates for two hours at 200 rpm at room temperature.
Binding Buffer: 50 mM Tris-HCl pH 7.4 and 5 mM MgCl2×6H2O pH 7.4. Washing Buffer: 50 mM Tris-HCl pH 7.4 and 5 mM MgCl2x6H2O and 0.5 M NaCl pH 7.4.
Indirect measurement of affinity of H3R inverse agonists: twelve increasing concentrations (ranging from 10 μM to 0.3 nM) of the selected compounds were always tested in competition binding experiments using membrane of the human HR3-CHO cell line. An appropriate amount of protein, e.g. approximately 500 cpm binding of RAMH at Kd, were incubated for 1 hour at room temperature in 250 μl final volume in 96-well plates in presence of ^3H(R)α-Methylhistamine (1 nM final concentration=Kd). […]
All compounds were tested at a single concentration in duplicates. […] Ki's were calculated from IC50 based on Cheng-Prusoff equation (Cheng, Y, Prusoff, W H (1973) Biochem Pharmacol 22, 3099-3108).

T1 sequence (Q9Y5N1 whole entry): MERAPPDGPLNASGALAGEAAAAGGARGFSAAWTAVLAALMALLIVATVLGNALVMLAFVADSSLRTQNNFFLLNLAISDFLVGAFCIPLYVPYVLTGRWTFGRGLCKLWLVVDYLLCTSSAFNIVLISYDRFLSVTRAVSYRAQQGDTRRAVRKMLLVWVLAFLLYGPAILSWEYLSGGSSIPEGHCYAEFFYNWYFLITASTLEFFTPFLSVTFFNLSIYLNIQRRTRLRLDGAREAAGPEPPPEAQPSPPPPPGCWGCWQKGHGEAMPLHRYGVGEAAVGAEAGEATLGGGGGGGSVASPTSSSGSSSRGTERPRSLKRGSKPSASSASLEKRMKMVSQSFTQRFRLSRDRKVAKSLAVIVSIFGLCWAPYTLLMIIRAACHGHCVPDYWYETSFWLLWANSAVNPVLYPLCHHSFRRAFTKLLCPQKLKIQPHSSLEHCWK

Molecule `CC(C)N1CCC(Oc2ccc3nc(C(=O)N4CC=CC4)ccc3c2)CC1` [Example 2, (2,5-dihydro-pyrrol-1-yl)-[6-(1-isopropyl-piperidin-4-yloxy)-quinolin-2-yl]-methanone] has a Ki of 200 nM.
`CC(C)N1CCC(Oc2ccc3nc(C(=O)N4CCC4)ccc3c2)CC1` [Example 14, azetidine-1-yl-[6-(1-isopropyl-piperidin-4-yloxy)-quinolin-2-yl]-methanone] gave a Ki of 78 nM.
With `O=C(c1ccc2cc(OCCCN3CCCCC3)ccc2n1)N1CCCC1` [Example 64, [6-(3-piperidin-1-yl-propoxy)-quinolin-2-yl]-pyrrolidin-1-yl-methanone] the Ki was 450 nM.
